pIC50: −log10 of the molar value. Where only a bound is given, the exact number is not on record here.

For the experiment, the target named is Protein smoothened (Homo sapiens, UniProt Q99835). Nature of the experiment: Inhibition of BODIPY-cyclopamine to Smo in human HEK293 Flag-Smo cells in presence of 2% FCS. It is filed as cell-based.
Chain of Protein smoothened (Q99835 whole entry): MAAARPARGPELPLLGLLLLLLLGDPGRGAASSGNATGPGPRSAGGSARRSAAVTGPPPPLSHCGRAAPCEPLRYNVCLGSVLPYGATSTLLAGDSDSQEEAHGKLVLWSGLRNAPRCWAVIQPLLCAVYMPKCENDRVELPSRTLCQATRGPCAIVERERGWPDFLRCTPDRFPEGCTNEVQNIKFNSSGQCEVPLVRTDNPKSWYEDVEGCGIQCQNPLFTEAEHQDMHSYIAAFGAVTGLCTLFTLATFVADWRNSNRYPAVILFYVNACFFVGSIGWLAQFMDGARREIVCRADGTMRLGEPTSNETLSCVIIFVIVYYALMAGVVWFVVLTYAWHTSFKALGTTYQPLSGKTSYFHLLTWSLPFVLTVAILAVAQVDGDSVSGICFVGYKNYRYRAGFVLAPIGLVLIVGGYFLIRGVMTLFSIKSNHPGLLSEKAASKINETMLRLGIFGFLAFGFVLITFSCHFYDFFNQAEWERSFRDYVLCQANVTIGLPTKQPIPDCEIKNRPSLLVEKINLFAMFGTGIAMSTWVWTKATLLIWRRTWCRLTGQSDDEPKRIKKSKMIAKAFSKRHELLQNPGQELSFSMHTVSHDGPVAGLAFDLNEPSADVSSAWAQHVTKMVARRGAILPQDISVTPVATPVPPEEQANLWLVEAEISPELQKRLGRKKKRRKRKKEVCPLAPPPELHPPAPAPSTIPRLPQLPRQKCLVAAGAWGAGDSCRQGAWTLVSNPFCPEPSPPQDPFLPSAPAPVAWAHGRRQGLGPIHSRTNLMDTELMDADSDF

Turning to `O=C(Cc1ccccc1)NCc1ccc2c(cnn2-c2ccc(F)cc2)c1`, the pIC50 (as a rule, −log10 of the IC50, conventionally taken in molar units) is under 5.00.

(Values after ChEMBL document CHEMBL1153047, “Discovery of N-[(1-aryl-1H-indazol-5-yl)methyl]amides derivatives as smoothened antagonists for inhibition of the hedgehog pathway” (Bioorg Med Chem Lett, 2009).)
